Results taken from ChEMBL document CHEMBL5705903, “A DNA Hypomethylation Signature Predicts Antitumor Activity of LSD1 Inhibitors in SCLC” (Cancer Cell, 2015).
Activity calls are given as the source filed them. The calls are words filed in the database; no cut-off is given here.

Tests used:
[1] = target: 3',5'-cyclic-AMP phosphodiesterase 4B (Homo sapiens, UniProt Q07343); experiment: Inhibition of PDE4B (unknown origin)
[2] = Effect on cleaved PARP level in human NCI-H146 cells assessed as fold change at 1000 nM measured after 14 days by Western blot analysis (reference value: 1.00); type: functional; settings: time 14 day
[3] = Effect on cleaved PARP level in human NCI-H1417 cells assessed as relative expression at 1000 nM measured after 10 days by Western blot analysis (reference value: 0.19); type: functional; settings: time 10 day
NCI-H526 [4] = experiment: In vivo inhibition of LSD1 in human NCI-H526 cells xenografted in nude mouse assessed as change in ZEB1 gene expression measured after 24 hrs post single administration by qRT-PCR analysis; type: functional, organism-based; settings: dose 0.06-135 mg/kg
[5] = Effect on cleaved PARP level in human NCI-H526 cells assessed as relative expression at 100 nM measured after 14 days by Western blot analysis (reference value: 0.66); type: functional; settings: time 14 day
[6] = Effect on cleaved PARP level in human NCI-H524 cells assessed as relative expression at 100 nM measured after 10 days by Western blot analysis (reference value: 0.95); type: functional; settings: time 10 day
NCI-H1417 [7] = experiment: Effect on caspase-3 level in human NCI-H1417 cells upto 1000 nM measured after 10 days by Western blot analysis; type: functional, cell-based; settings: time 10.0 day
[8] = Toxicity in rat assessed as suppression of platelet in bone marrow measured for 28 days; type: cell-based; settings: 672 h, time 28 day
[9] = Effect on cleaved PARP level in human NCI-H2171 cells assessed as relative expression at 10 nM measured after 10 days by Western blot analysis (reference value: 0.02); type: functional; settings: time 10 day
[10] = Effect on cleaved PARP level in human NCI-H526 cells assessed as fold change at 100 nM measured after 10 days by Western blot analysis (reference value: 1.00); type: functional; settings: time 10 day
[11] = Effect on cleaved PARP level in human NCI-H524 cells assessed as relative expression at 1000 nM measured after 7 days by Western blot analysis (reference value: 0.63); type: functional; settings: time 7 day
[12] = Toxicity in rat assessed as effect on hemodynamics measured for 28 days; settings: in vivo, 672 h, time 28 day
[13] = Effect on cleaved PARP level in human NCI-H889 cells assessed as relative expression at 1000 nM measured after 7 days by Western blot analysis (reference value: 0.34); type: functional; settings: time 7 day
[14] = Effect on cleaved PARP level in human NCI-H524 cells assessed as fold change at 10 nM measured after 7 days by Western blot analysis (reference value: 1.00); type: functional; settings: time 7 day
[15] = Effect on cleaved PARP level in human NCI-H510 cells assessed as fold change at 1000 nM measured after 14 days by Western blot analysis (reference value: 1.00); type: functional, NCI-H510A; settings: time 14 day
[16] = Effect on cleaved PARP level in human NCI-H69 cells assessed as fold change at 1000 nM measured after 10 days by Western blot analysis (reference value: 1.00); type: functional; settings: time 10 day
NCI-H526 [17] = experiment: In vivo inhibition of LSD1 in human NCI-H526 cells xenografted in nude mouse assessed as change in KIAA1644 gene expression administrated daily for 5 days by qRT-PCR analysis; type: functional, organism-based; settings: dose 0.02-135 mg/kg, time 5.0 day
[18] = Effect on cleaved PARP level in human NCI-H1417 cells assessed as relative expression at 10 nM measured after 10 days by Western blot analysis (reference value: 0.19); type: functional; settings: time 10 day
[19] = Effect on cleaved PARP level in human NCI-H146 cells assessed as relative expression at 100 nM measured after 10 days by Western blot analysis (reference value: 0.27); type: functional; settings: time 10 day
[20] = Effect on cleaved PARP level in human NCI-H510 cells assessed as relative expression at 1000 nM measured after 10 days by Western blot analysis (reference value: 0.02); type: functional, NCI-H510A; settings: time 10 day
[21] = Effect on cleaved PARP level in human NCI-H889 cells assessed as fold change at 100 nM measured after 10 days by Western blot analysis (reference value: 1.00); type: functional; settings: time 10 day
NCI-H1417 [22] = experiment: In vivo inhibition of LSD1 in human NCI-H1417 cells xenografted in nude mouse assessed as change in LBH gene expression measured after 24 hrs post single administration by qRT-PCR analysis; type: functional, organism-based; settings: dose 0.02-135 mg/kg
COLO-668 = experiment: Effect on NCAM gene expression in human COLO-668 cells at 1 uM measured after 4 days by qRT-PCR analysis; type: functional, cell-based; settings: time 4.0 day
[23] = Effect on cleaved PARP level in human NCI-H2171 cells assessed as relative expression at 10 nM measured after 7 days by Western blot analysis (reference value: 0.02); type: functional; settings: time 7 day
[24] = Effect on cleaved PARP level in human NCI-H526 cells assessed as fold change at 10 nM measured after 10 days by Western blot analysis (reference value: 1.00); type: functional; settings: time 10 day
[25] = Effect on cleaved PARP level in human NCI-H2171 cells assessed as fold change at 100 nM measured after 10 days by Western blot analysis (reference value: 1.00); type: functional; settings: time 10 day
[26] = Effect on cleaved PARP level in human COLO-668 cells assessed as fold change at 1000 nM measured after 14 days by Western blot analysis (reference value: 1.00); type: functional; settings: time 14 day
[27] = Effect on cleaved PARP level in human NCI-H889 cells assessed as relative expression at 10 nM measured after 14 days by Western blot analysis (reference value: 0.94); type: functional; settings: time 14 day
[28] = Effect on cleaved PARP level in human NCI-H2171 cells assessed as relative expression at 100 nM measured after 7 days by Western blot analysis (reference value: 0.02); type: functional; settings: time 7 day
[29] = Toxicity in rat assessed as myelofibrosis measured for 28 days; settings: in vivo, 672 h, time 28 day
[30] = Effect on cleaved PARP level in human NCI-H69 cells assessed as relative expression at 1000 nM measured after 14 days by Western blot analysis (reference value: 0.03); type: functional; settings: time 14 day
[31] = Effect on cleaved PARP level in human NCI-H69 cells assessed as relative expression at 100 nM measured after 10 days by Western blot analysis (reference value: 0.03); type: functional; settings: time 10 day
[32] = Effect on cleaved PARP level in human NCI-H2171 cells assessed as relative expression at 1000 nM measured after 7 days by Western blot analysis (reference value: 0.02); type: functional; settings: time 7 day
[33] = Effect on cleaved PARP level in human NCI-H2171 cells assessed as fold change at 100 nM measured after 7 days by Western blot analysis (reference value: 1.00); type: functional; settings: time 7 day
NCI-H526 [34] = experiment: Antitumor activity against human NCI-H526 cells xenografted in nude mouse assessed as tumor growth inhibition at 1.5 mg/kg, po administered daily measured twice weekly relative to control; type: functional; settings: read-out: TGI
[35] = Effect on cleaved PARP level in human NCI-H146 cells assessed as fold change at 1000 nM measured after 10 days by Western blot analysis (reference value: 1.00); type: functional; settings: time 10 day

Chain of 3',5'-cyclic-AMP phosphodiesterase 4B (Q07343 whole entry): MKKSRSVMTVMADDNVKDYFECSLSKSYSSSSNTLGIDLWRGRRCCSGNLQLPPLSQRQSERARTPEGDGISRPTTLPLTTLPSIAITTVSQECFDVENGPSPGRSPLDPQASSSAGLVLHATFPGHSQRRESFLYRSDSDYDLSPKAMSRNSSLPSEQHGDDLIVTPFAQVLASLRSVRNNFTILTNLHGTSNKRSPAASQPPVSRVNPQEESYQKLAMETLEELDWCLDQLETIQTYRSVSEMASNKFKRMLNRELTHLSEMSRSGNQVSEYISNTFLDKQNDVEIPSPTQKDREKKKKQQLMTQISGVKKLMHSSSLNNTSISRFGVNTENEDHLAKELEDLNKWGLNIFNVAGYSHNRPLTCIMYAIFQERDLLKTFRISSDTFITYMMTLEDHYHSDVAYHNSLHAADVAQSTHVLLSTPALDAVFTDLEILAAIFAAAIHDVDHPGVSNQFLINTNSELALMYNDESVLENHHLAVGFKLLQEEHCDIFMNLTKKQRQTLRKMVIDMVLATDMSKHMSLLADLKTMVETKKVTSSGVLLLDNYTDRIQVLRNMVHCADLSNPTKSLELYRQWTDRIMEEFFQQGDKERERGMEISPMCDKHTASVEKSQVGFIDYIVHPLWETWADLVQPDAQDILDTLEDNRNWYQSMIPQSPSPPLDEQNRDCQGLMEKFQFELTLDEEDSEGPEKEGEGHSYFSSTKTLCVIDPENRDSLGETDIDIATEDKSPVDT

Compound: c1ccc([C@@H]2C[C@H]2NC2CCNCC2)cc1
- IC50 [1]: > 100 µM

Compound: O=C(O)c1ccc(CN2CCC(CN[C@@H]3C[C@H]3c3ccccc3)CC2)cc1 [GSK2879552]
- fold change (FC) [2]: 0.6
- Activity [3]: 0.4
- inhibition (NCI-H526 [4]): Dose-Dependent Effect
- Activity [5]: 0.93
- Activity [6]: 0.67
- Activity (NCI-H1417 [7]): inactive
- Activity [8]: Toxic
- Activity [9]: 0.02
- fold change (FC) [10]: 1.16
- Activity [11]: 1.12
- Activity [12]: Toxic
- Activity [13]: 0.66
- fold change (FC) [14]: 0.99
- fold change (FC) [15]: 2.61
- fold change (FC) [16]: 2.5
- inhibition (NCI-H526 [17]): Dose-Dependent Effect
- Activity [18]: 0.27
- Activity [19]: 0.25
- Activity [20]: 0.23
- fold change (FC) [21]: 2.25
- inhibition (NCI-H1417 [22]): Dose-Dependent Effect
- Activity (COLO-668): inactive
- Activity [23]: 0.03
- fold change (FC) [24]: 0.57
- fold change (FC) [25]: 1.2
- fold change (FC) [26]: 0.29
- Activity [27]: 1.73
- Activity [28]: 0.03
- Activity [29]: Toxic
- Activity [30]: 0.17
- Activity [31]: 0.06
- Activity [32]: 0.04
- fold change (FC) [33]: 1.71
- inhibition in vivo at 1.5 mg/kg (NCI-H526 [34]): 57%
- fold change (FC) [35]: 0.89
